From ChEMBL document CHEMBL1201862, “PubChem BioAssay data set” (2004)
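Dose response: 5 concentrations. Exposure: 48 h. Format: 96-well plates. Endpoint: linear interpolation; highest concentration if not reached. The concentration for 50% growth inhibition is given as GI50.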 Activity calls are given as the source filed them. No stated cut-off is given here; in the data, active = GI50 up to about 1.1 µM and inactive = higher.

How the values were obtained:
Assay in all cases: NCI tumour cell line growth inhibition, 48 h
A498 = tested on: A498
A549 = tested on: A549
ACHN = tested on: ACHN
HCC 2998 = tested on: HCC 2998
HOP-62 = tested on: HOP-62
HT-29 = tested on: HT-29
KM12 = tested on: KM12
LOX IMVI = tested on: LOX IMVI
M14 = tested on: M14
MCF7 = tested on: MCF7
NCI-H460 = tested on: NCI-H460
OVCAR-8 = tested on: OVCAR-8
SN12C = tested on: SN12C
SNB-19 = tested on: SNB-19
SNB-75 = tested on: SNB-75
SW-620 = tested on: SW-620
U-251 = tested on: U-251
UO-31 = tested on: UO-31
CCRF-CEM = tested on: CCRF-CEM
SK-OV-3 = tested on: SK-OV-3

SMILES	GI50 (A498)	GI50 (A549)	GI50 (ACHN)	GI50 (HCC 2998)	GI50 (HOP-62)	GI50 (HT-29)	GI50 (KM12)	GI50 (LOX IMVI)	GI50 (M14)	GI50 (MCF7)	GI50 (NCI-H460)	GI50 (OVCAR-8)	GI50 (SN12C)	GI50 (SNB-19)	GI50 (SNB-75)	GI50 (SW-620)	GI50 (U-251)	GI50 (UO-31)	GI50 (CCRF-CEM)	GI50 (SK-OV-3)
CC(=O)OC1CCC2(C)C(CCC3C2CC(=O)C2(C)C3CC(N3CC3)C2C(C)=O)C1 (centres undefined)	19.6 µM (inactive)	27.4 µM (inactive)	13.8 µM (inactive)	15.4 µM (inactive)	24.5 µM (inactive)	22.6 µM (inactive)	17.1 µM (inactive)	5.33 µM (inactive)	20.2 µM (inactive)	15.4 µM (inactive)	12.4 µM (inactive)	14 µM (inactive)	21.9 µM (inactive)	20.9 µM (inactive)	17.2 µM (inactive)	21.1 µM (inactive)	17.2 µM (inactive)	18 µM (inactive)		
COc1cc2cc(C(=O)N3CC(COS(C)(=O)=O)c4c3cc([N+](=O)[O-])c3ccccc43)[nH]c2c(OC)c1OC (centres undefined)	10.7 µM (inactive)	2.81 µM (inactive)	0.547 µM (active)	0.291 µM (active)	7.57 µM (inactive)	6.15 µM (inactive)	30.1 µM (inactive)	33.2 µM (inactive)	19 µM (inactive)	2 µM (inactive)	0.0986 µM (active)	2.15 µM (inactive)	5.83 µM (inactive)	> 31.6 µM (inactive)	> 24 µM (inactive)	1.79 µM (inactive)	> 31.6 µM (inactive)	2.56 µM (inactive)	0.778 µM (active)	61.9 µM (inactive)
O=C1/C(=C/c2cccc3ccccc23)CCc2ccc([N+](=O)[O-])cc21	19.3 µM (inactive)	22.8 µM (inactive)	26.8 µM (inactive)	83.8 µM (inactive)	28.2 µM (inactive)		6.32 µM (inactive)	26.9 µM (inactive)	24.4 µM (inactive)	4.8 µM (inactive)	29 µM (inactive)	37.3 µM (inactive)	28.4 µM (inactive)	12.7 µM (inactive)	19.2 µM (inactive)	9.66 µM (inactive)	14.1 µM (inactive)	33.7 µM (inactive)	60.8 µM (inactive)	21.6 µM (inactive)
CC(C)Sc1nncc(/C(N)=N/O)n1	> 100 µM (inactive)	> 100 µM (inactive)	> 100 µM (inactive)	> 100 µM (inactive)	> 100 µM (inactive)	> 100 µM (inactive)	88.5 µM (inactive)	> 100 µM (inactive)	> 100 µM (inactive)	> 100 µM (inactive)	> 100 µM (inactive)	> 100 µM (inactive)	> 100 µM (inactive)	> 100 µM (inactive)	> 100 µM (inactive)	> 100 µM (inactive)	> 100 µM (inactive)	> 100 µM (inactive)	> 100 µM (inactive)	> 100 µM (inactive)
COC1CC(C)C(OC)C2=CC(=O)C=C(NC(=O)/C(C)=C/C=C\C(C)C(OC(N)=O)/C(C)=C\C(C)C1OC)C2=O (centres undefined)	11.7 µM (inactive)	2.9 µM (inactive)	1.25 µM (inactive)	0.665 µM (active)	1.48 µM (inactive)	0.244 µM (active)	0.521 µM (active)	0.379 µM (active)	0.589 µM (active)	0.0621 µM (active)	0.422 µM (active)	1.67 µM (inactive)	0.296 µM (active)	0.495 µM (active)	0.762 µM (active)	0.0485 µM (active)	0.37 µM (active)	4.83 µM (inactive)	0.117 µM (active)	0.357 µM (active)
CCOC(=O)/C(C(=O)Nc1cccc(Cl)c1)=C(/N)N1CCOCC1	> 100 µM (inactive)	> 100 µM (inactive)	> 100 µM (inactive)	> 100 µM (inactive)	> 100 µM (inactive)	> 100 µM (inactive)	> 100 µM (inactive)	> 100 µM (inactive)	> 100 µM (inactive)	> 100 µM (inactive)	> 100 µM (inactive)	> 100 µM (inactive)	> 100 µM (inactive)	> 100 µM (inactive)	> 100 µM (inactive)	> 100 µM (inactive)	> 100 µM (inactive)		> 100 µM (inactive)	> 100 µM (inactive)
COc1cc(C=O)cc(/C=N/n2c3ccccc3c3ccccc32)c1O	20.7 µM (inactive)	> 100 µM (inactive)	6.12 µM (inactive)	19.3 µM (inactive)	30.3 µM (inactive)	35.7 µM (inactive)	35.8 µM (inactive)	14.2 µM (inactive)	4.6 µM (inactive)	3.78 µM (inactive)	30.5 µM (inactive)	8.09 µM (inactive)	5.46 µM (inactive)	21.3 µM (inactive)	2.79 µM (inactive)	9.73 µM (inactive)	9.04 µM (inactive)	8.18 µM (inactive)	4.09 µM (inactive)	6.76 µM (inactive)
CCOc1ccc(N/C(Cl)=C(Cl)\C(=C(\Nc2ccc(OCC)cc2)n2nnc3ccccc32)[N+](=O)[O-])cc1	20.4 µM (inactive)	23.3 µM (inactive)	4.03 µM (inactive)	13.2 µM (inactive)	33.1 µM (inactive)	1.75 µM (inactive)	19.1 µM (inactive)	1.65 µM (inactive)	4.75 µM (inactive)	5.89 µM (inactive)	24.7 µM (inactive)	1.74 µM (inactive)	7.94 µM (inactive)	17.4 µM (inactive)	18.3 µM (inactive)	2.32 µM (inactive)	6.78 µM (inactive)	4.45 µM (inactive)	1.3 µM (inactive)	66.5 µM (inactive)
CC(=O)Oc1ccc2cc(Oc3ccc(Cl)cc3)c(=O)oc2c1	25.2 µM (inactive)	21.6 µM (inactive)	38.8 µM (inactive)	35.8 µM (inactive)	58.2 µM (inactive)	63.7 µM (inactive)	37.8 µM (inactive)	37.9 µM (inactive)	49.9 µM (inactive)	32.7 µM (inactive)	40.7 µM (inactive)	19.1 µM (inactive)	29.6 µM (inactive)	60.4 µM (inactive)	75.5 µM (inactive)	40.8 µM (inactive)	42.8 µM (inactive)	30.6 µM (inactive)		
CCCCCCCCCCCCCCCCCCOCC(O)COP(=O)(O)OCC1OC(n2ccc(N)nc2=O)C(O)C1O (centres undefined)	11 µM (inactive)	3.85 µM (inactive)	11.3 µM (inactive)	22 µM (inactive)	11.6 µM (inactive)	22.8 µM (inactive)	17.1 µM (inactive)	14.1 µM (inactive)		22 µM (inactive)	3.69 µM (inactive)	6.31 µM (inactive)	36.6 µM (inactive)	11.6 µM (inactive)	13 µM (inactive)	35.6 µM (inactive)	11.9 µM (inactive)		0.56 µM (active)	66.8 µM (inactive)
CN(C)CCNc1nc2ccccc2c2c1CCCC2	17.2 µM (inactive)	32.6 µM (inactive)	23.9 µM (inactive)	12.5 µM (inactive)	16.5 µM (inactive)	22.8 µM (inactive)	19.3 µM (inactive)	17.8 µM (inactive)	16.5 µM (inactive)	14.8 µM (inactive)	16 µM (inactive)	31.8 µM (inactive)	22.9 µM (inactive)	29.9 µM (inactive)	15.7 µM (inactive)	26.2 µM (inactive)	17.3 µM (inactive)	11.2 µM (inactive)		18.2 µM (inactive)
COC1(OC)CCCCCCCCC(OC)(OC)CCCCCCCC1	> 100 µM (inactive)	> 100 µM (inactive)	> 100 µM (inactive)	> 100 µM (inactive)	> 100 µM (inactive)	> 100 µM (inactive)	> 100 µM (inactive)	> 100 µM (inactive)	> 100 µM (inactive)	> 100 µM (inactive)	> 100 µM (inactive)	> 100 µM (inactive)	> 100 µM (inactive)	> 100 µM (inactive)	> 100 µM (inactive)	> 100 µM (inactive)	> 100 µM (inactive)	0.553 µM (active)		> 100 µM (inactive)
CC(=O)N1c2ccccc2C2=NN(C)C(=N)SC21 (centres undefined)	66.7 µM (inactive)	> 100 µM (inactive)	> 100 µM (inactive)	> 100 µM (inactive)	> 100 µM (inactive)	> 100 µM (inactive)	> 100 µM (inactive)	> 100 µM (inactive)	> 100 µM (inactive)	> 100 µM (inactive)	> 100 µM (inactive)	> 100 µM (inactive)	> 100 µM (inactive)	> 100 µM (inactive)	56 µM (inactive)	> 100 µM (inactive)	> 100 µM (inactive)	28 µM (inactive)	> 100 µM (inactive)	
COC1C(CO)OC(n2c3c(Cl)cccc3c3c4c(c5c6cccc(Cl)c6[nH]c5c32)C(=O)NC4=O)C(O)C1O (centres undefined)	0.158 µM (active)	0.298 µM (active)	0.113 µM (active)	0.367 µM (active)	0.177 µM (active)	0.244 µM (active)	0.614 µM (active)	0.116 µM (active)	0.333 µM (active)	0.1 µM (active)	0.177 µM (active)	0.177 µM (active)	0.104 µM (active)	0.213 µM (active)	0.234 µM (active)	0.0849 µM (active)	0.173 µM (active)	0.296 µM (active)	0.0367 µM (active)	0.303 µM (active)
